{"source": "patent US20170042890A1", "about": "“METHODS OF REDUCING DECLINE IN VITAL CAPACITY” (Cytokinetics, Inc., priority 2014, published 2017)", "key": {"[1]": {"system": "patients with ALS", "experiment": "BENEFIT-ALS clinical trial: ALSFRS-R total score", "type": "in vivo, human", "settings": "Modified FAS", "protocol": "(§1) BENEFIT-ALS was a multi-national, randomized, stratified, double-blind, placebo-controlled, parallel-group study of tirasemtiv in patients with ALS. The study consisted of a screening period, an open-label/lead-in period, and a double-blind treatment period. Following screening, eligible patients received open-label tirasemtiv, 125 mg BID, for 7 days. Patients who tolerated the 7-day lead-in period were randomized in a 1:1 ratio to tirasemtiv or placebo. Over the first 3 weeks of double-blind treatment, patients randomized to tirasemtiv had their TDD up-titrated as follows: 250 mg for 7 days, then 375 mg for 7 days, then 500 mg for 7 days. […] However, in such cases, dose escalation was re-attempted at least one additional time. The highest tolerable tirasemtiv dose for each individual patient was the dose that patient received for the remaining 9 weeks (i.e., the maximum tolerated dose [MTD] phase) of the study. Patients randomized to placebo underwent a corresponding dummy dose titration.\nRandomization was stratified by riluzole use. […] Clinical assessments occurred every 4 weeks during double-blind treatment; patients also returned for follow-up evaluations at 1 and 4 weeks after their final dose of double-blind study medication (FIG. 1). […]\nEligible patients were males and females, 18 years of age and older, with a diagnosis of familial or sporadic ALS and meeting the World Federation of Neurology El Escorial criteria of definite ALS, probable ALS, laboratory-supported probable ALS, or possible ALS. Patients were to have an upright SVC>50% of predicted for age, height, and sex, a diminished, but measurable, maximum voluntary grip strength in at least one hand (i.e., between 10-50 pounds for females and 10-70 pounds for males), and at least 4 of the 12 ALSFRS-R questions were to have been scored as a 2 or 3. […]\nSafety data presented were based on the safety analysis set, defined as all patients who received at least 1 dose of double-blind study drug. […] Data for the primary and secondary efficacy endpoints were analyzed with the Modified FAS. […]"}, "[2]": {"system": "patients with ALS", "experiment": "BENEFIT-ALS clinical trial: Maximum Voluntary Ventilation (MVV)", "type": "in vivo, human", "protocol": "as §1\nRandomization was stratified by riluzole use. […] Clinical assessments occurred every 4 weeks during double-blind treatment; patients also returned for follow-up evaluations at 1 and 4 weeks after their final dose of double-blind study medication (FIG. 1).\nThe secondary objectives included assessments of the effect of tirasemtiv versus placebo on measures of respiratory function (Maximum Voluntary Ventilation (MVV), Sniff Nasal Inspiratory Pressure (SNIP), SVC) and skeletal muscle function including handgrip fatigue and muscle-strength mega-score (i.e., the average z-score for muscle strength measurements across the following tested bilateral muscle groups: elbow flexion, wrist extension, knee extension, ankle dorsiflexion, and handgrip)). Secondary endpoints included the changes from baseline in each of the above mentioned measures (MVV, SNIP, SVC, and muscle-strength mega-score) for the Modified FAS, and the slope of each of the measures from baseline to Week 12 for the Modified FAS.\nEligible patients were males and females, 18 years of age and older, with a diagnosis of familial or sporadic ALS and meeting the World Federation of Neurology El Escorial criteria of definite ALS, probable ALS, laboratory-supported probable ALS, or possible ALS. Patients were to have an upright SVC>50% of predicted for age, height, and sex, a diminished, but measurable, maximum voluntary grip strength in at least one hand (i.e., between 10-50 pounds for females and 10-70 pounds for males), and at least 4 of the 12 ALSFRS-R questions were to have been scored as a 2 or 3. Patients were to be able to swallow tablets without crushing, and in the opinion of the investigator, were expected to do so for the duration of the study. If the patient needed a caregiver, the caregiver was to be able to observe the patient's status. Clinical laboratory results were to be either within their respective normal ranges or if outside the normal range, deemed not clinically significant by the investigator. […] Patients not taking riluzole prior to study entry were not permitted to take riluzole at any dose during the course of the study.\nSafety data presented were based on the safety analysis set, defined as all patients who received at least 1 dose of double-blind study drug. Of the 605 randomized patients, 596 (295 placebo, 301 tirasemtiv) received at least 1 dose of double-blind study drug and were included in the safety analysis set. Data for the primary and secondary efficacy endpoints were analyzed with the Modified FAS. This analysis set included all patients who received at least 1 dose of double-blind study drug and had at least 1 efficacy assessment during the double-blind treatment period, and excluded 156 patients who were randomized in blocks containing patients affected by a study drug assignment error in which 58 patients randomized to and treated with double-blind tirasemtiv were dispensed double-blind placebo instead. […]"}, "[3]": {"system": "fast skeletal muscle troponin complex", "settings": "cited from earlier work"}, "[4]": {"system": "muscle", "settings": "other model systems; cited from earlier work"}}}
{"molecule": "C#Cc1cnc2nc(O)n(C(CC)CC)c2n1", "note": "[Tirasemtiv, 6-ethynyl-1-(pentan-3-yl)-1H-imidazo[4,5-b]pyrazin-2(3H)one]", "values": [{"measurement": "ALSFRS total score change versus placebo, in words", "setting": "[1]; Visits 6 and 7", "value": "not statistically different between treatment groups"}, {"measurement": "LS mean±SE difference between treatment groups (tirasemtiv response minus placebo response) in ALSFRS total score change", "setting": "[1]; Visits 6 and 7, 95% CI −1.30, 0.14, p=0.114", "value": "−0.58±0.366"}, {"measurement": "LS mean change from baseline to the average of ALSFRS total score at Visits 6 and 7", "setting": "[1]; after approx. 8 and 12 weeks double-blind, tirasemtiv BID up to 500 mg/day", "value": "−2.98"}, {"measurement": "MVV slope from baseline to Week 12", "setting": "[2]; Modified FAS N=178", "value": "−0.0567"}, {"measurement": "MVV change from baseline (LS mean)", "setting": "[2]; Week 4, Modified FAS N=178", "value": -2.89, "unit": "L/min"}, {"measurement": "MVV change from baseline (LS mean)", "setting": "[2]; Week 8, Modified FAS N=178", "value": -2.14, "unit": "L/min"}, {"measurement": "MVV change from baseline (LS mean)", "setting": "[2]; Week 12, Modified FAS N=178", "value": -5.45, "unit": "L/min"}, {"measurement": "MVV versus placebo, in words", "setting": "[2]; human, in vivo", "value": "no statistically significant difference between treatment groups"}, {"measurement": "MVV difference in slope (tirasemtiv vs placebo)", "setting": "[2]; p=0.8799", "value": 0.0044}, {"measurement": "Activity on fast skeletal muscle troponin complex", "setting": "[3]", "value": "highly selective activator"}, {"measurement": "Rate of calcium release from fast skeletal TnC", "setting": "[3]", "value": "slows the rate of calcium release"}, {"measurement": "Fatigability of muscle", "setting": "[4]", "value": "decreased fatigability of muscle"}, {"measurement": "Muscle power", "setting": "[4]", "value": "increased muscle power"}]}
